Assay results from patent publication US12209096B2, “Compounds and compositions for inducing chondrogenesis” (NOVARTIS AG, priority 2017, dated 2025).
pIC50: −log10 of the molar value.

Legend:
Type in all cases: in vitro ADME
[1] = intrinsic clearance in human liver microsomes
[2] = target: CYP3A4 (Homo sapiens, UniProt P08684); assay: CYP3A4 inhibition; conditions: read-out: CYP3A4 inh.
[3] = intrinsic clearance in rat liver microsomes

Sequence of CYP3A4 (P08684 whole entry): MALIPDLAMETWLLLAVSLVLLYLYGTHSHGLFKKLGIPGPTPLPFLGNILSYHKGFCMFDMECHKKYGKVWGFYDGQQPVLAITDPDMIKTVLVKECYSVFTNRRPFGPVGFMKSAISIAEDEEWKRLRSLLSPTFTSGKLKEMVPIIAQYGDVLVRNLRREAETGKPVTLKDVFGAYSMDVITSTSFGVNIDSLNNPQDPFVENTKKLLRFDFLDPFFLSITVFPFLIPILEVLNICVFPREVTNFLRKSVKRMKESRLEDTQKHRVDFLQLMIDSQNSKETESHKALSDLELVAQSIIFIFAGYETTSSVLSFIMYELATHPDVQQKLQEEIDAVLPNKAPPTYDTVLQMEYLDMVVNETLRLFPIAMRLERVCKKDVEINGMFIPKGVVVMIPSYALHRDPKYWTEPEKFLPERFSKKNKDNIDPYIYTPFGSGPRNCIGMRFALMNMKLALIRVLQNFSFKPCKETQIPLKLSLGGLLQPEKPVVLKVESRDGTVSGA

microsomal CLint [1] [µL/min/mg] | pIC50 [2] | microsomal CLint [3] [µL/min/mg] | SMILES
7 | < 4.60 | 7 | O=C(Nc1ccc(Cl)c(Cl)c1)[C@H]1[C@@H](c2ccncc2)[C@H]2O[C@@H]1C[C@@H]2O
7 | 4.70 | 11 | Nc1cc([C@H]2[C@H]3O[C@H](C[C@@H]3O)[C@@H]2C(=O)Nc2ccc(Cl)c(Cl)c2)ccn1 [drawing 199]
202 | 5.22 | 466 | O=C(Nc1ccc(Cl)c(Cl)c1)[C@H]1[C@@H](c2ccncc2)[C@@H]2CC[C@H]1O2 [reference compound]
38 | 5.30 | 243 | Nc1cc([C@@H]2[C@@H](C(=O)Nc3ccc(Cl)c(Cl)c3)[C@H]3CC[C@@H]2O3)ccn1 [reference compound]
